Consider 17 molecules from patent US20110009381A1, “SOLUBILIZED THIAZOLOPYRIDINES” (Sirtis Pharmaceuticals, Inc., priority 2007, published 2011).

In this test the target is T1, SIRT1 (Homo sapiens, UniProt Q96EB6).
T1 sequence (Q96EB6 1-747): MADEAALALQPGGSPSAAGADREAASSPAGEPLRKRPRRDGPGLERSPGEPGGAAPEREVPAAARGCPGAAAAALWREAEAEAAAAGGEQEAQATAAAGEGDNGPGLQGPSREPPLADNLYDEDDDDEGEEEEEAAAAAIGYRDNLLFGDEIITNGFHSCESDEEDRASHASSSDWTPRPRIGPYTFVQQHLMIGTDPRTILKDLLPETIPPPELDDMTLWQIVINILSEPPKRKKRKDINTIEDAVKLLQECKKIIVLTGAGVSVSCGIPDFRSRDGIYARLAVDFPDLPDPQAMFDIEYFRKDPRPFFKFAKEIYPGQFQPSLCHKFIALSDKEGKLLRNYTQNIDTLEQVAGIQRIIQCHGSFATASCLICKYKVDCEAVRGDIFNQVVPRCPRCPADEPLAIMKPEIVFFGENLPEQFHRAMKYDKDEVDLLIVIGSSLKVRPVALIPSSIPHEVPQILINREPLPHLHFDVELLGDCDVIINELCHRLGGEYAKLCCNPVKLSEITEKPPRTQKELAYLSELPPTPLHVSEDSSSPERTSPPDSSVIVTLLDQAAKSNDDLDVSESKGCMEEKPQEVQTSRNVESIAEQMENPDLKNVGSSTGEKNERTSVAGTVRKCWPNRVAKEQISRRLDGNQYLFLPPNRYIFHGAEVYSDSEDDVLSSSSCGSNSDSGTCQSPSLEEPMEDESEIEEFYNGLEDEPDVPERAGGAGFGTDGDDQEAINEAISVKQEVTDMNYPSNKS
As to the kind of experiment: Mass spectrometry based assay to identify modulators of SIRT1 activity (deacetylation of p53-based acetylated peptide substrate). The test is classed as biochemical. The following applies: 10 nM SIRT1, 0.5 μM peptide substrate, 120 μM βNAD+, 25 minutes at 25° C.; for EC1.5: SIRT1 activation. Put shortly:
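Activation measured on His-tagged SIRT1 (10 nM, E. coli-expressed) deacetylating a 0.5 μM p53-derived acetyl-peptide with 120 μM βNAD^+ for 25 min at 25 °C, pH 8 Tris-acetate. After formic acid stop, mass spectrometry quantified acetylated versus deacetylated peptide, referenced to DMSO and nicotinamide controls. Reported as EC1.5 and maximum fold activation.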

In the case of `NCCNc1cc(C(=O)Nc2ccccc2-c2nc3cccnc3s2)nc(-c2ccccc2)n1` [Compound 83], the “FOLD ACT. (percent maximum fold activation)” value is on record as “A (Fold activation≧300%)”; the EC1.5 entry was “A (EC1.5≧250 nM and ≦1 uM)”.

Take `NCCCNc1cc(C(=O)Nc2ccccc2-c2nc3cccnc3s2)nc(-c2ccccc2)n1` [Compound 84]: the “FOLD ACT. (percent maximum fold activation)” value is recorded as “A (Fold activation≧300%)” and the EC1.5 entry is recorded as “A′ (EC1.5<250 nM)”.

Regarding `O=C(Nc1ccccc1-c1nc2cccnc2s1)c1cc(N[C@H]2CCCNC2)nc(-c2ccccc2)n1` [Compound 85], the “FOLD ACT. (percent maximum fold activation)” value is given as “A (Fold activation≧300%)”; the EC1.5 result was “A (EC1.5≧250 nM and ≦1 uM)”.

On to `NCCCCCNc1cc(C(=O)Nc2ccccc2-c2nc3cccnc3s2)nc(-c2ccccc2)n1` [Compound 86], for which the “FOLD ACT. (percent maximum fold activation)” value was “A (Fold activation≧300%)” and the EC1.5 entry is on record as “A′ (EC1.5<250 nM)”.

For `NCCCCNc1cc(C(=O)Nc2ccccc2-c2nc3cccnc3s2)nc(-c2ccccc2)n1` [Compound 87], the “FOLD ACT. (percent maximum fold activation)” value was “A (Fold activation≧300%)”; the EC1.5 entry is “A (EC1.5≧250 nM and ≦1 uM)”.

On to `CN(C)CCCNc1cc(C(=O)Nc2ccccc2-c2nc3cccnc3s2)nc(-c2ccccc2)n1` [Compound 88], for which the “FOLD ACT. (percent maximum fold activation)” value was “A (Fold activation≧300%)”; the EC1.5 result is “A (EC1.5≧250 nM and ≦1 uM)”.

Regarding `O=C(Nc1ccccc1-c1nc2cccnc2s1)c1cc(NCC2CCCCN2)nc(-c2ccccc2)n1` (stereo not shown) [Compound 89], the “FOLD ACT. (percent maximum fold activation)” value is listed as “A (Fold activation≧300%)” and the EC1.5 result is recorded as “A′ (EC1.5<250 nM)”.

For `CCN(CC)CCOc1cc(C(=O)Nc2ccccc2-c2nc3cccnc3s2)nc(-c2ccccc2)n1` [Compound 90], the “FOLD ACT. (percent maximum fold activation)” value is “A (Fold activation≧300%)”; the EC1.5 entry is “A (EC1.5≧250 nM and ≦1 uM)”.

Regarding `O=C(Nc1ccccc1-c1nc2cccnc2s1)c1cc(NC2CCOC2=O)nc(-c2ccccc2)n1` (stereo not shown) [Compound 91], the “FOLD ACT. (percent maximum fold activation)” value was “A (Fold activation≧300%)” and the EC1.5 result was “A′ (EC1.5<250 nM)”.

Take `O=C(Nc1ccccc1-c1nc2cccnc2s1)c1cc(NC(CO)C(=O)O)nc(-c2ccccc2)n1` (stereo not shown) [Compound 92]: the “FOLD ACT. (percent maximum fold activation)” value is “A (Fold activation≧300%)”; the EC1.5 result was “B (EC1.5>1 and ≦10 uM)”.

Regarding `CCN(CC)CCCOc1cc(C(=O)Nc2ccccc2-c2nc3cccnc3s2)nc(-c2ccccc2)n1` [Compound 93], the “FOLD ACT. (percent maximum fold activation)” value is “A (Fold activation≧300%)”; the EC1.5 entry was “A (EC1.5≧250 nM and ≦1 uM)”.

Regarding `CN(C)CCOc1cc(C(=O)Nc2ccccc2-c2nc3cccnc3s2)nc(-c2ccccc2)n1` [Compound 94], the “FOLD ACT. (percent maximum fold activation)” value is on record as “A (Fold activation≧300%)”; the EC1.5 result is “A (EC1.5≧250 nM and ≦1 uM)”.

With `O=C(Nc1ccccc1-c1nc2cccnc2s1)c1cc(N[C@@H]2CCCNC2)nc(-c2ccccc2)n1` [Compound 95], the “FOLD ACT. (percent maximum fold activation)” value is reported as “A (Fold activation≧300%)” and the EC1.5 entry was “A′ (EC1.5<250 nM)”.

For `CC1(C)OCC(CNc2cc(C(=O)Nc3ccccc3-c3nc4cccnc4s3)nc(-c3ccccc3)n2)O1` (stereo not shown) [Compound 96], the “FOLD ACT. (percent maximum fold activation)” value was “A (Fold activation≧300%)”; the EC1.5 result is “A (EC1.5≧250 nM and ≦1 uM)”.

For the molecule `CC1(C)OC[C@H](COc2cc(C(=O)Nc3ccccc3-c3nc4cccnc4s3)nc(-c3ccccc3)n2)O1` [Compound 97], the “FOLD ACT. (percent maximum fold activation)” value is “B (Fold Activation≧150% and <300%)”; the EC1.5 result was “C (EC1.5>10 uM)”.

Turning to `CN1CCC(Nc2cc(C(=O)Nc3ccccc3-c3nc4cccnc4s3)nc(-c3ccccc3)n2)CC1` [Compound 99], the “FOLD ACT. (percent maximum fold activation)” value is “A (Fold activation≧300%)” and the EC1.5 entry is “A′ (EC1.5<250 nM)”.

Take `CCN1CCC(Nc2cc(C(=O)Nc3ccccc3-c3nc4cccnc4s3)nc(-c3ccccc3)n2)CC1` [Compound 100]: the “FOLD ACT. (percent maximum fold activation)” value is recorded as “A (Fold activation≧300%)” and the EC1.5 result is listed as “A′ (EC1.5<250 nM)”.
